Data published in US20250313572A1, “MACROCYCLIC MCL-1 INHIBITORS AND METHODS OF USE” (AbbVie Inc., priority 2017, published 2025).
Read-outs that look alike come from different tables or passages of the source.

What was measured:
GST-MCL-1 = GST-MCL-1 (Homo sapiens, UniProt Q07820); test: TR-FRET MCL-1 binding assay (competition with probe F-Bak)
How it was run: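 Displacement of F-Bak from GST-MCL-1 is detected by time-resolved FRET with a Tb-labelled anti-GST antibody, with excitation 340/35 nm and emission 520/525 and 495/510 nm, after 2 hours at room temperature. Compounds were titrated in 11 three-fold steps starting at 25 μM final, in buffer alone or in 10% HS.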

[1] = tested on: AMO-1 human multiple myeloma tumor cell line; test: AMO-1 cell viability assay (CellTiter-Glo, 24 hours); assay type: cell-based; conditions: Homo sapiens, AMO1, 24 h, read-out: AMO-1 Viability IC50 (μM, 10% FBS), 10% FBS, 24 hours of compound treatment
[2] = tested on: NCI-H929 human multiple myeloma tumor cell line; test: NCI-H929 cell viability assay (CellTiter-Glo, 24 hours); assay type: cell-based; conditions: Homo sapiens, NCI-H929, 24 h, read-out: H929 Viability IC50 (μM, 10% FBS), 10% FBS, 24 hours of compound treatment
[3] = MCL-1 Binding Ki (nM, 10% HS), in the presence of 10% HS (human serum)
[4] = without HS, read-out: MCL-1 Binding Ki

Chain of GST-MCL-1 (Q07820 whole entry): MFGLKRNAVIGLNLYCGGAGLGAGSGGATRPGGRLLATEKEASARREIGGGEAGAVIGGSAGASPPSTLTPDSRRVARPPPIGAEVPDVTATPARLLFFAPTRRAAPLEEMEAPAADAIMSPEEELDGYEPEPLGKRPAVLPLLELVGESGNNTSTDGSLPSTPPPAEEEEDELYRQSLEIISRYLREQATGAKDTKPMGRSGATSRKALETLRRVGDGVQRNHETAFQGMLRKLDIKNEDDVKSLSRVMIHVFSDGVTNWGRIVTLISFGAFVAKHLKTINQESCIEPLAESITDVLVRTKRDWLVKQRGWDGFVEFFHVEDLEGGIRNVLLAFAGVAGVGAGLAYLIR

SMILES | Ki (GST-MCL-1; [3]) [nM] | Ki (GST-MCL-1; [4]) [nM] | IC50 [1] [µM] | IC50 [2] [µM]
COCCOCCOCCOc1ccc(-c2nccc(COc3ccc4cc3C[C@H](C(=O)O)Oc3ncnc5sc(-c6ccc(F)cc6)c(c35)-c3c(C)c(Cl)c(c(Cl)c3C)O[C@H](CN3CCN(C)CC3)CO4)n2)cc1 [Example 16, (7R,16R)-19,23-dichloro-1-(4-fluorophenyl)-10-{[2-(4-{2-[2-(2-methoxyethoxy)ethoxy]ethoxy}phenyl)pyrimidin-4-yl]methoxy}-20,22-dimethyl-16-[(4-methylpiperazin-1-yl)methyl]-7,8,15,16-tetrahydro-18,21-etheno-13,9-(metheno)-6,14,17-trioxa-2-thia-3,5-diazacyclononadeca[1,2,3-cd]indene-7-carboxylic Acid] | 0.359 | 0.028 | 0.000177 | 0.000347
Cc1c(Cl)c2c(Cl)c(C)c1-c1c(-c3ccc(F)cc3)sc3ncnc(c13)O[C@@H](C(=O)O)Cc1cc(ccc1OCc1ccnc(-c3ccc(CCC(=O)O)cc3)n1)OC[C@@H](CN1CCN(C)CC1)O2 [Example 20, (7R,16R)-10-({2-[4-(2-carboxyethyl)phenyl]pyrimidin-4-yl}methoxy)-19,23-dichloro-1-(4-fluorophenyl)-20,22-dimethyl-16-[(4-methylpiperazin-1-yl)methyl]-7,8,15,16-tetrahydro-18,21-etheno-13,9-(metheno)-6,14,17-trioxa-2-thia-3,5-diazacyclononadeca[1,2,3-cd]indene-7-carboxylic Acid] | 0.165 | 0.007 | 0.00425 | 0.00804
Cc1c(Cl)c2c(Cl)c(C)c1-c1c(-c3ccc(F)cc3)sc3ncnc(c13)O[C@@H](C(=O)O)Cc1cc(ccc1OCc1ccnc(-c3ccc(OC[C@H](O)CO)cc3)n1)OC[C@@H](CN1CCN(C)CC1)O2 [Example 22, (7R,16R)-19,23-dichloro-10-[(2-{4-[(2R)-2,3-dihydroxypropoxy]phenyl}pyrimidin-4-yl)methoxy]-1-(4-fluorophenyl)-20,22-dimethyl-16-[(4-methylpiperazin-1-yl)methyl]-7,8,15,16-tetrahydro-18,21-etheno-13,9-(metheno)-6,14,17-trioxa-2-thia-3,5-diazacyclononadeca[1,2,3-cd]indene-7-carboxylic Acid] | 0.214 | 0.015 | 0.00133 | 0.0018
Cc1c(Cl)c2c(Cl)c(C)c1-c1c(-c3ccc(F)cc3)sc3ncnc(c13)O[C@@H](C(=O)O)Cc1cc(ccc1OCc1ccnc(-c3ccccc3OC[C@H](O)CO)n1)OC[C@@H](CN1CCN(C)CC1)O2 [Example 23, (7R,16R)-19,23-dichloro-10-[(2-{2-[(2R)-2,3-dihydroxypropoxy]phenyl}pyrimidin-4-yl)methoxy]-1-(4-fluorophenyl)-20,22-dimethyl-16-[(4-methylpiperazin-1-yl)methyl]-7,8,15,16-tetrahydro-18,21-etheno-13,9-(metheno)-6,14,17-trioxa-2-thia-3,5-diazacyclononadeca[1,2,3-cd]indene-7-carboxylic Acid] | 0.238 | 0.018 | 0.00222 | 0.00389
Cc1c(Cl)c2c(Cl)c(C)c1-c1c(-c3ccc(F)cc3)sc3ncnc(c13)O[C@@H](C(=O)O)Cc1cc(ccc1OCc1ccnc(N3CCP(C)(=O)CC3)n1)OC[C@@H](CN1CCN(C)CC1)O2 [Example 25, (7R,16R)-19,23-dichloro-1-(4-fluorophenyl)-20,22-dimethyl-10-{[2-(4-methyl-4-oxo-1,4λ^5-azaphosphinan-1-yl)pyrimidin-4-yl]methoxy}-16-[(4-methylpiperazin-1-yl)methyl]-7,8,15,16-tetrahydro-18,21-etheno-13,9-(metheno)-6,14,17-trioxa-2-thia-3,5-diazacyclononadeca[1,2,3-cd]indene-7-carboxylic Acid] | 5.7 | 0.844 | 0.0727 | 0.0808
Cc1c(Cl)c2c(Cl)c(C)c1-c1c(-c3ccc(F)cc3)sc3ncnc(c13)O[C@@H](C(=O)O)Cc1cc(ccc1OCc1ccnc(-c3ccccc3S(C)(=N)=O)n1)OCC(CN1CCN(C)CC1)O2 (stereo partly drawn) [Example 26, (7R,16R)-19,23-dichloro-1-(4-fluorophenyl)-10-({2-[2-(S-methanesulfonimidoyl)phenyl]pyrimidin-4-yl}methoxy)-20,22-dimethyl-16-[(4-methylpiperazin-1-yl)methyl]-7,8,15,16-tetrahydro-18,21-etheno-13,9-(metheno)-6,14,17-trioxa-2-thia-3,5-diazacyclononadeca[1,2,3-cd]indene-7-carboxylic Acid] | 0.11 | 0.021 | 0.00112 | 0.00289
Cc1c2ccc(c1Cl)O[C@H](CN1CCN(C)CC1)COc1ccc(OCc3ccnc(-c4cccc(=O)n4C)n3)c(c1)C[C@H](C(=O)O)Oc1ncnc3sc(-c4ccc(F)cc4)c-2c13 [Example 28, (7R,16R)-19-chloro-1-(4-fluorophenyl)-20-methyl-10-{[2-(1-methyl-6-oxo-1,6-dihydropyridin-2-yl)pyrimidin-4-yl]methoxy}-16-[(4-methylpiperazin-1-yl)methyl]-7,8,15,16-tetrahydro-18,21-etheno-13,9-(metheno)-6,14,17-trioxa-2-thia-3,5-diazacyclononadeca[1,2,3-cd]indene-7-carboxylic Acid] | 0.027 | 0.021 | 0.00269 | 0.00583
COCCOCCOCCOCC1(c2nccc(COc3ccc4cc3C[C@H](C(=O)O)Oc3ncnc5sc(-c6ccc(F)cc6)c(c35)-c3c(C)c(Cl)c(c(Cl)c3C)O[C@H](CN3CCN(C)CC3)CO4)n2)CC1 [Example 29, (7R,16R)-19,23-dichloro-1-(4-fluorophenyl)-20,22-dimethyl-16-[(4-methylpiperazin-1-yl)methyl]-10-({2-[1-(2,5,8,11-tetraoxadodecan-1-yl)cyclopropyl]pyrimidin-4-yl}methoxy)-7,8,15,16-tetrahydro-18,21-etheno-13,9-(metheno)-6,14,17-trioxa-2-thia-3,5-diazacyclononadeca[1,2,3-cd]indene-7-carboxylic Acid] | 1.21 | 0.204 | 0.000894 | 0.000942
Cc1c(Cl)c2c(Cl)c(C)c1-c1c(-c3ccc(F)cc3)sc3ncnc(c13)O[C@@H](C(=O)O)Cc1cc(ccc1OCc1ccnc(-c3ccc(S(C)(=N)=O)cc3)n1)OC[C@@H](CN1CCN(C)CC1)O2 (stereo partly drawn) [Example 30, (7R,16R)-19,23-dichloro-1-(4-fluorophenyl)-10-({2-[4-(S-methanesulfonimidoyl)phenyl]pyrimidin-4-yl}methoxy)-20,22-dimethyl-16-[(4-methylpiperazin-1-yl)methyl]-7,8,15,16-tetrahydro-18,21-etheno-13,9-(metheno)-6,14,17-trioxa-2-thia-3,5-diazacyclononadeca[1,2,3-cd]indene-7-carboxylic Acid] | 0.252 | 0.033 | 0.00277 | 0.00356
Cc1c(Cl)c2c(Cl)c(C)c1-c1c(-c3ccc(F)cc3)sc3ncnc(c13)O[C@@H](C(=O)O)Cc1cc(ccc1OCc1ccnc([C@H]3CC[C@@H](CC(=O)O)CC3)n1)OC[C@@H](CN1CCN(C)CC1)O2 [Example 31, (7R,16R)-10-({2-[(1 s,4s)-4-(carboxymethyl)cyclohexyl]pyrimidin-4-yl}methoxy)-19,23-dichloro-1-(4-fluorophenyl)-20,22-dimethyl-16-[(4-methylpiperazin-1-yl)methyl]-7,8,15,16-tetrahydro-18,21-etheno-13,9-(metheno)-6,14,17-trioxa-2-thia-3,5-diazacyclononadeca[1,2,3-cd]indene-7-carboxylic Acid] | 0.049 | 0.004 | 0.00743 | 0.0133
Cc1c(Cl)c2c(Cl)c(C)c1-c1c(-c3ccc(F)cc3)sc3ncnc(c13)O[C@@H](C(=O)O)Cc1cc(ccc1OCc1ccnc([C@H]3CC[C@H](CC(=O)O)CC3)n1)OC[C@@H](CN1CCN(C)CC1)O2 [Example 32, (7R,16R)-10-({2-[(1r,4r)-4-(carboxymethyl)cyclohexyl]pyrimidin-4-yl}methoxy)-19,23-dichloro-1-(4-fluorophenyl)-20,22-dimethyl-16-[(4-methylpiperazin-1-yl)methyl]-7,8,15,16-tetrahydro-18,21-etheno-13,9-(metheno)-6,14,17-trioxa-2-thia-3,5-diazacyclononadeca[1,2,3-cd]indene-7-carboxylic Acid] | 0.034 | 0.003 | 0.00878 | 0.0143
Cc1c(Cl)c2c(Cl)c(C)c1-c1c(-c3ccc(F)cc3)sc3ncnc(c13)O[C@@H](C(=O)O)Cc1cc(ccc1OCc1ccnc(N3CC4C(C3)C4(F)F)n1)OC[C@@H](CN1CCN(C)CC1)O2 (stereo partly drawn) [Example 33, (7R,16R)-19,23-dichloro-10-{[2-(6,6-difluoro-3-azabicyclo[3.1.0]hexan-3-yl)pyrimidin-4-yl]methoxy}-1-(4-fluorophenyl)-20,22-dimethyl-16-[(4-methylpiperazin-1-yl)methyl]-7,8,15,16-tetrahydro-18,21-etheno-13,9-(metheno)-6,14,17-trioxa-2-thia-3,5-diazacyclononadeca[1,2,3-cd]indene-7-carboxylic Acid] | 2.23 | 0.088 | 0.000282 | 0.00123
